This is an account of results in US11629171B2, “Beta-hairpin peptidomimetics” (POLYPHOR AG, priority 2017, dated 2023).

What all share (format): cell-based
The subject of data set [1] is Acinetobacter baumannii 872842. The conditions noted are these: 872842. The method, then: (§1) The in vitro antimicrobial activities of the peptides were determined in 96-well plates (Greiner, polystyrene) by the standard CLSI broth microdilution method (Clinical and Laboratory Standards Institute 2014. Performance standards for antimicrobial susceptibility testing, 24th informational supplement. Approved standard CLSI M100-S24; Clinical and Laboratory Standards Institute, Wayne, Pa.). The following microorganisms were used to determine antibiotic activity of the peptides: Escherichia coli ATCC 25922, Klebsiella pneumoniae SSI #3010^a), Acinetobacter baumannii DSM 30008, Pseudomonas aeruginosa ATCC 27853 and the clinical isolates Escherichia coli 926415^b), Klebsiella pneumoniae 968733^b), Acinetobacter baumannii 872842^b), Enterobacter cloacae 848840^b) and Escherichia coli MCR-1 Af45^c). Before preparation of inocula, Escherichia coli MCR-1 Af45 was subcultured on Mueller-Hinton II (MH-cation adjusted) agar containing 2 μg/mL colistin. ^a) Obtained from Statens Serum Institut (SSI), Copenhagen, Denmark^b) Obtained from International Health Management Associates, Inc. (IHMA Europe Sàrl), Epalinges, Switzerland^c) Obtained from Prof. Patrice Nordmann, University of Fribourg, Fribourg, Switzerland
(§2) Inocula of the microorganisms were diluted into Mueller-Hinton II (MH-cation adjusted) broth and compared with a 0.5 McFarland standard to give appr. 10^6 colony forming units (CFU)/mL. Aliquots (90 μL) of inoculum were added to 10 μL of MH-II broth+P-80 (Polysorbate 80, 0.002% final concentration, v/v) containing the peptide in serial two-fold dilutions. Antimicrobial activities of the peptides were expressed as the minimal inhibitory concentration (MIC) in μg/mL at which no visible growth was observed after 18-20 hours of incubation at 35° C.

The test system of data set [2] is Acinetobacter baumannii DSM 30008. Particulars: DSM 30008. The method, then: as §1, §2
The test system of data set [3] is Enterobacter cloacae 848840. The conditions noted are these: 848840. Here is the method:
as §1, §2

Data set [4] deals with Escherichia coli 926415. The conditions noted are these: 926415. The method, then: as §1, §2
In data set [5] the test system is Escherichia coli ATCC 25922. The conditions noted are these: ATCC 25922. Here is the method:
as §1, §2

Data set [6] has as its system Klebsiella pneumoniae 968733. Particulars: 968733. Here is the method:
as §1, §2

Data set [7] has as its system Klebsiella pneumoniae SSI #3010. Particulars: SSI #3010. Here is the method:
as §1, §2

For data set [8], the system named is Pseudomonas aeruginosa ATCC 27853. Particulars: ATCC 27853. The method, then: as §1, §2
Data set [9] deals with human red blood cells (hRBC). Put plainly: Hemolysis. The conditions noted are these: red cells of human, 1 h, 200. The method, boiled down: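 hRBC washed 4× in PBS; 200 μg/mL peptide + 20% (v/v) hRBC, 1 h, 37° C, 300 rpm. Spin, supernatant ~7.5-fold diluted, OD540 blank corrected. % hemolysis = OD540 peptide / OD540 Triton X-100 × 100.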

SMILES strings stand for the structures. In brackets after ≈: the same amount, converted by molar mass. Where a SMILES comes first, the peptide text is derived from it. Bridges are numbered along the chain shown (N, C = ends). Roman numbers before positions name the chains, in order. [ ]: non-standard residue; d: D form. Tle = CC(C)(C)[C@H](N)C(=O)O; dDab = NCC[C@@H](N)C(=O)O; hSer = N[C@@H](CCO)C(=O)O; Orn = NCCC[C@H](N)C(=O)O; Dab = NCC[C@H](N)C(=O)O; Dap = NC[C@H](N)C(=O)O

Consider `CC(=O)N[C@H](C(=O)N[C@H]1CCCNC(=O)[C@@H]([C@H](C)O)NC(=O)[C@H](C(C)(C)C)NC(=O)[C@H](CO)NC(=O)[C@H](Cc2c[nH]c3ccccc23)NC(=O)[C@H](CCO)NC(=O)[C@@H](CCN)NC(=O)[C@H](CCC(=O)N[C@@H](CCN)C(=O)N[C@H](C(=O)N[C@@H](CN)C(=O)N[C@H]2CCNC(=O)[C@H]([C@@H](C)O)NC(=O)[C@H](CCN)NC(=O)[C@H](CCN)NC(=O)[C@H](CC(C)C)NC(=O)[C@@H](CC(C)C)NC(=O)[C@H](CCN)NC2=O)[C@@H](C)O)NC(=O)[C@H](CCN)NC(=O)[C@H](Cc2ccc(O)cc2)NC1=O)C(C)C` [Ex. 16] (I: Ac-V[Orn]Y[Dab]E[dDab][hSer]WS[Tle][dT] / II: [Dab]T[Dap][Dab][Dab][dL]L[Dab][Dab]T; lactam I:2-I:C, II:4-II:C; amide I:5-II:N), for which the MIC (usually the lowest concentration that inhibits growth of the organism) is 0.25 µg/mL (≈ 0.107 µM) in data set [1]; 0.0625 µg/mL (≈ 0.0268 µM) in data set [2]; 0.25 µg/mL (≈ 0.107 µM) in data set [3]; 0.25 µg/mL (≈ 0.107 µM) in data set [4]; 0.0625 µg/mL (≈ 0.0268 µM) in [5]; 0.125 µg/mL (≈ 0.0536 µM) in data set [6]. Also, the figures for the MIC in data set [7] and in [8] were 0.0625 µg/mL (≈ 0.0268 µM) and 0.25 µg/mL (≈ 0.107 µM), respectively. In addition, the “Hemolysis at 200 μg/mL” value in data set [9] is under 1%.

Consider `CC(=O)N[C@H](C(=O)N[C@H]1CCCNC(=O)[C@@H]([C@H](C)O)NC(=O)[C@H](C(C)(C)C)NC(=O)[C@H](CO)NC(=O)[C@H](Cc2c[nH]c3ccccc23)NC(=O)[C@H](CCO)NC(=O)[C@@H](CCN)NC(=O)[C@H](CCC(=O)N[C@@H](CCN)C(=O)N[C@H](C(=O)N[C@@H](CN)C(=O)N[C@H]2CCNC(=O)[C@H]([C@@H](C)O)NC(=O)[C@H](CCN)NC(=O)[C@H](CCN)NC(=O)[C@H](CC(C)C)NC(=O)[C@@H](CC(C)C)NC(=O)[C@H](CCN)NC2=O)[C@@H](C)O)NC(=O)[C@H]([C@@H](C)O)NC(=O)[C@H](Cc2ccc(O)cc2)NC1=O)C(C)C` [Ex. 17] (I: Ac-V[Orn]YTE[dDab][hSer]WS[Tle][dT] / II: [Dab]T[Dap][Dab][Dab][dL]L[Dab][Dab]T; lactam I:2-I:C, II:4-II:C; amide I:5-II:N), for which the MIC turned out to be 0.125 µg/mL (≈ 0.0535 µM) in data set [1]; 0.0625 µg/mL (≈ 0.0268 µM) in data set [2]; 0.25 µg/mL (≈ 0.107 µM) in data set [3]; 0.5 µg/mL (≈ 0.214 µM) in data set [4]; 0.0625 µg/mL (≈ 0.0268 µM) in data set [5]; 0.5 µg/mL (≈ 0.214 µM) in data set [6]. The MIC amounted to 0.125 µg/mL (≈ 0.0535 µM) in [7] and 0.25 µg/mL (≈ 0.107 µM) in [8]. In [9], the “Hemolysis at 200 μg/mL” value was under 1%.

On to `CC(=O)N[C@H](C(=O)N[C@H]1CCCNC(=O)[C@@H]([C@H](C)O)NC(=O)[C@H](C(C)(C)C)NC(=O)[C@H](CO)NC(=O)[C@H](Cc2c[nH]c3ccccc23)NC(=O)[C@H](CCO)NC(=O)[C@@H](CCN)NC(=O)[C@H](CCC(=O)N[C@@H](CCN)C(=O)N[C@H](C(=O)N[C@@H](CN)C(=O)N[C@H]2CCNC(=O)[C@H]([C@@H](C)O)NC(=O)[C@H](CCN)NC(=O)[C@H](CCN)NC(=O)[C@H](CC(C)C)NC(=O)[C@@H](CC(C)C)NC(=O)[C@H](CCN)NC2=O)[C@@H](C)O)NC(=O)[C@H](CO)NC(=O)[C@H](Cc2ccc(O)cc2)NC1=O)C(C)C` [Ex. 18] (I: Ac-V[Orn]YSE[dDab][hSer]WS[Tle][dT] / II: [Dab]T[Dap][Dab][Dab][dL]L[Dab][Dab]T; lactam I:2-I:C, II:4-II:C; amide I:5-II:N), for which the MIC in [1] came to 0.25 µg/mL (≈ 0.108 µM); in data set [2] it was 0.0625 µg/mL (≈ 0.0269 µM); in data set [3] it was 0.125 µg/mL (≈ 0.0539 µM); in data set [4], 0.25 µg/mL (≈ 0.108 µM); in data set [5], 0.0625 µg/mL (≈ 0.0269 µM); in data set [6] it was 0.5 µg/mL (≈ 0.215 µM). Also, the values for the MIC in data set [7] and in data set [8] were 0.125 µg/mL (≈ 0.0539 µM) and 0.25 µg/mL (≈ 0.108 µM), respectively. For the same compound, in data set [9], the “Hemolysis at 200 μg/mL” value is 1%.
